# Values of other authors in patent US11963942B2, “Oral taxane compositions and methods” (Athenex HK Innovative Limited, priority 2015, dated 2024).
# Target: MDR1 (ABCB1) (Homo sapiens, UniProt P08183)
# Conditions: Kwak et al., Eur. J. Pharm. 627, 92-98 (2010)
# Chain of MDR1 (ABCB1) (P08183 whole entry, species assumed): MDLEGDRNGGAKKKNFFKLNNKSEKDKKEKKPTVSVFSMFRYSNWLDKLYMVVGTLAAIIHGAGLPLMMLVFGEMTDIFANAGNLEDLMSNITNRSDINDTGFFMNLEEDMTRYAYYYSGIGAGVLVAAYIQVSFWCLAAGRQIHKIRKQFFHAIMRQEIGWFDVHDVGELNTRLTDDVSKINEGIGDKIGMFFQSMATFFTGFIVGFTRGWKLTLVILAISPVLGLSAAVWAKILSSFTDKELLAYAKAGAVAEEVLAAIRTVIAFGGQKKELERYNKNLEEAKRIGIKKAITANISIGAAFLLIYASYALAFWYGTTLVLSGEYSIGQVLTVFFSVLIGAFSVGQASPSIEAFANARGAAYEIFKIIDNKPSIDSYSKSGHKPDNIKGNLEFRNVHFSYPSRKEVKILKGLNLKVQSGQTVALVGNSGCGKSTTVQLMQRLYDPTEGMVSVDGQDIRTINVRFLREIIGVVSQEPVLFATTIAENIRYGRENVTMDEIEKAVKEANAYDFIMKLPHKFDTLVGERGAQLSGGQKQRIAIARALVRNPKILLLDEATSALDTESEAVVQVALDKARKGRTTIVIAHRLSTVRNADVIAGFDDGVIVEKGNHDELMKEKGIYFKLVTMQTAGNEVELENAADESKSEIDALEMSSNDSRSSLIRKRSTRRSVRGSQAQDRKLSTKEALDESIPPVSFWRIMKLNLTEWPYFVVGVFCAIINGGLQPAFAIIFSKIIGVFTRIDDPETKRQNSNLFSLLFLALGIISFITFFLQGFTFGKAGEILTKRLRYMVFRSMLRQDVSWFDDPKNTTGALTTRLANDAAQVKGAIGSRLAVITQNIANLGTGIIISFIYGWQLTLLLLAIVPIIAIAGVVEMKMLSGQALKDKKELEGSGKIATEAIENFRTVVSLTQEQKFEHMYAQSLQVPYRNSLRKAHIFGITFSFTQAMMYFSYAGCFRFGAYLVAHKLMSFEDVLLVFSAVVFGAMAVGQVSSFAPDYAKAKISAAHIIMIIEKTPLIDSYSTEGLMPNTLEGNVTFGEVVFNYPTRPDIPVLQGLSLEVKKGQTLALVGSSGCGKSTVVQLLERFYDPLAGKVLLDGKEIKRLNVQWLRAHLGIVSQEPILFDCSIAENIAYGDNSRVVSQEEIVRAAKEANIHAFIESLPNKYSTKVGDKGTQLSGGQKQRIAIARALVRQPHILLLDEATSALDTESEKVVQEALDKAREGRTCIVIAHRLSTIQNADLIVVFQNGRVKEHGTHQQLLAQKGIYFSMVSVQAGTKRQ
compound,measurement,value
"COc1cc2c(cc1OC)CN(CCc1ccc(-n3nnc(-c4cc(OC)c(OC)cc4NC(=O)c4cc(=O)c5ccccc5o4)n3)cc1)CC2 [HM30181, 4-oxo-4H-chromene-2-carboxylic acid [2-(2-(4-[2-(6,7-dimethoxy-3,4-dihydro-1H-isoquinolin-2-yl)-ethyl]-phenyl)-2H-tetrazol-5-yl)-4,5-dimethoxy-phenyl]-amide]",potency compared with cyclosporine A,more potent than cyclosporine A
